Test results from BindingDB's records for doi:10.1016/j.bmc.2021.116291 (Fudan University School of Pharmacy, 2021).

biological target: Glucagon-like peptide 1 receptor (Homo sapiens, UniProt P43220); test: Binding affinity to GLP1R (unknown origin) assessed as dissociation rate constant by surface plasmon resonance analysis
Sequence (P43220 whole entry): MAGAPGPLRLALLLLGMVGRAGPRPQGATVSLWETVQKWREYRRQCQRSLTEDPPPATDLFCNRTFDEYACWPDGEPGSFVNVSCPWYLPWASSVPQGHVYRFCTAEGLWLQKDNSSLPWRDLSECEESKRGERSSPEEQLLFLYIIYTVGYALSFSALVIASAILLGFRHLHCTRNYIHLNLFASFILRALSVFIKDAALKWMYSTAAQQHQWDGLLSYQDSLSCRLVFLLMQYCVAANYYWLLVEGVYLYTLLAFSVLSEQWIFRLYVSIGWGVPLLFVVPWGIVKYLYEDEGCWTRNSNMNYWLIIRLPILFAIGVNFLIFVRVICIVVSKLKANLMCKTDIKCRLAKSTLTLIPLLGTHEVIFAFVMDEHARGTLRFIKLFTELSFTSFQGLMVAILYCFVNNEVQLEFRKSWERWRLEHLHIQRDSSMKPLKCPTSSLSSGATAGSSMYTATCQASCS

koff | Compound
0.0065 s⁻¹ | CCCCCCCCCCCC(=O)N[C@@H](CCC(=O)NCCCC[C@H](NC(=O)CC[C@H](NC(=O)CCCCCCCCCCC)C(=O)O)C(=O)NCCOCCOCC(=O)O)C(=O)O
0.00857 s⁻¹ | CCCCCCCCCCCC(=O)N[C@@H](CCC(=O)NCCCC[C@H](NC(=O)CC[C@H](NC(=O)CCCCCCCCCCC)C(=O)O)C(=O)NCCOCCOCC(=O)NCCOCCOCC(=O)O)C(=O)O
0.0237 s⁻¹ | CCCCCCCCCCCC(=O)N[C@@H](CCC(=O)NCCCC[C@H](NC(=O)CC[C@H](NC(=O)CCCCCCCCCCC)C(=O)O)C(=O)NCCOCCOCC(=O)NCCOCCOCC(=O)NCCOCCOCC(=O)O)C(=O)O
